In ChEMBL document CHEMBL4765321, “Discovery of new thieno[3,2-d]pyrimidine derivatives targeting EGFR NSCLCs by the conformation constrained strategy” (Eur J Med Chem, 2020):
pIC50: −log10 of the molar value. Active and inactive are the calls of the source. The rule behind the calls is not given here.

Assays:
[1] = target: Epidermal growth factor receptor (Homo sapiens, UniProt P00533, L858R/T790M); assay: Inhibition of N-terminal GST-fused human EGFR L858R/T790M double mutant cytoplasmic domain (669 to 1210 residues) expressed in baculovirus expression system using 5-FAM-EEPLYWSFPAKKK-CONH2 as substrate incubated for 20 mins by Mobility shift assay
NCI-H1975 [2] = assay: cells; type: functional, cell-based; conditions: Homo sapiens, NCI-H1975, 72 h
[3] = target: T1, Epidermal growth factor receptor (Homo sapiens, UniProt P00533); assay: Inhibition of N-terminal GST-fused human wild type EGFR cytoplasmic domain (669 to 1210 residues) expressed in baculovirus expression system using 5-FAM-EEPLYWSFPAKKK-CONH2 as substrate incubated for 20 mins by Mobility shift assay
[4] = tested on: Epidermal growth factor receptor (Homo sapiens), P00533 [L858R,T790M]; assay: Inhibition of N-terminal GST-fused human EGFR L858R/T790M double mutant cytoplasmic domain (669 to 1210 residues) expressed in baculovirus expression system using 5-FAM-EEPLYWSFPAKKK-CONH2 as substrate at 1 uM incubated for 20 mins by Mobility shift assay
Homo sapiens = species on record: Homo sapiens; assay: Selectivity index, ratio of IC50 for N-terminal GST-fused human wild type EGFR cytoplasmic domain (669 to 1210 residues) expressed in baculovirus expression system to IC50 for N-terminal GST-fused human EGFR L858R/T790M double mutant cytoplasmic domain (669 to 1210 residues) expressed in baculovirus expression system
L02 = assay: Cytotoxicity against human L0-2 cells assessed as reduction in cell viability measured after 72 hrs by MTT assay; type: ADME, cell-based; conditions: L02, 72 h
A549 [5] = assay: Antiproliferative activity against human A549 cells harboring wild type EGFR assessed as reduction in cell viability measured after 72 hrs by MTT assay; type: cell-based; conditions: A549, 72 h
PC-9 = assay: Antiproliferative activity against human PC9 cells harboring EGFRdel19 mutant assessed as reduction in cell viability measured after 72 hrs by MTT assay; type: functional, cell-based; conditions: PC-9, 72 h
[6] = tested on: Epidermal growth factor receptor (Homo sapiens), P00533 [L858R,T790M]; assay: Inhibition of EGFR L858R/T790M double mutant in human H1975 cells assessed as inhibition of EGF-induced ERK phosphorylation at 1 uM incubated for 2 hrs followed by EGF stimulation for 10 mins by western blot analysis; type: cell-based; conditions: NCI-H1975, time 130.0 min
[7] = tested on: Epidermal growth factor receptor (Homo sapiens), P00533 [L858R,T790M]; assay: Binding affinity to EGFR L858R/T790M double mutant in human H1975 cells assessed as increase in protein signal at 50 uM incubated for 4 hrs followed by heating from 40 to 64 degC for 5 mins by CETSA based western blot analysis; type: cell-based; conditions: NCI-H1975, time 245.0 min
[8] = target: T1, Epidermal growth factor receptor; assay: Binding affinity to wild type EGFR in human A549 cells assessed as increase in protein signal at 50 uM incubated for 4 hrs followed by heating from 40 to 64 degC for 5 mins by CETSA based western blot analysis; type: cell-based; conditions: a549, 4.083 h, time 245 min
[9] = target: T1, Epidermal growth factor receptor; assay: Inhibition of EGFR in human A549 cells assessed as inhibition of ERK phosphorylation at 1 to 10 uM incubated for 2 hrs followed by EGF stimulation for 10 mins by western blot analysis; type: cell-based; conditions: a549, 2.167 h, dose 1-10 µM, time 130 min
NCI-H1975 [10] = assay: Inhibition of cell migration in human H1975 cells at 0.5 to 5 uM incubated for 48 hrs by scratch wound healing assay; type: functional, cell-based; conditions: dose 0.5-5 µM
NCI-H1975 [11] = assay: Inhibition of colony formation in human H1975 cells measured after 10 days by crystal violet staining based ELISA; type: functional, cell-based; conditions: dose 0.31-2.5 µM, time 10.0 day
A549 [12] = assay: Inhibition of colony formation in human A549 cells at 0.31 to 2.5 uM measured after 10 days by crystal violet staining based ELISA; type: cell-based; conditions: a549, 240 h, dose 0.31-2.5 µM, time 10 day
A549 [13] = assay: Inhibition of cell migration in human A549 cells at 5 uM incubated for 48 hrs by scratch wound healing assay; type: cell-based; conditions: a549, 48 h
[14] = tested on: Epidermal growth factor receptor (Homo sapiens), P00533 [L858R,T790M]; assay: Inhibition of EGF-induced phosphorylation of EGFR L858R/T790M double mutant in human H1975 cells at 10 uM incubated for 2 hrs followed by EGF stimulation for 10 mins by western blot analysis; type: cell-based; conditions: NCI-H1975, time 130.0 min
[15] = tested on: Epidermal growth factor receptor (Homo sapiens), P00533 [L858R,T790M]; assay: Inhibition of EGFR L858R/T790M double mutant in human H1975 cells assessed as inhibition of EGF-induced ERK phosphorylation incubated for 2 hrs followed by EGF stimulation for 10 mins by western blot analysis; type: cell-based; conditions: NCI-H1975, dose 1-10 µM, time 130.0 min
[16] = tested on: Epidermal growth factor receptor (Homo sapiens), P00533 [L858R,T790M]; assay: Inhibition of EGFR L858R/T790M double mutant in human H1975 cells assessed as inhibition of EGF-induced ERK phosphorylation at 3 uM incubated for 2 hrs followed by EGF stimulation for 10 mins by western blot analysis; type: cell-based; conditions: NCI-H1975, time 130.0 min
[17] = tested on: Epidermal growth factor receptor (Homo sapiens), P00533 [L858R,T790M]; assay: Inhibition of EGFR L858R/T790M double mutant in human H1975 cells assessed as inhibition of EGF-induced ERK phosphorylation at 10 uM incubated for 2 hrs followed by EGF stimulation for 10 mins by western blot analysis; type: cell-based; conditions: NCI-H1975, time 130.0 min
[18] = tested on: Epidermal growth factor receptor (Homo sapiens), P00533 [L858R,T790M]; assay: Inhibition of EGF-induced phosphorylation of EGFR L858R/T790M double mutant in human H1975 cells at 3 uM incubated for 2 hrs followed by EGF stimulation for 10 mins by western blot analysis; type: cell-based; conditions: NCI-H1975, time 130.0 min
[19] = target: T1, Epidermal growth factor receptor; assay: Inhibition of EGFR phosphorylation in human A549 cells at 1 to 10 uM incubated for 2 hrs followed by EGF stimulation for 10 mins by western blot analysis; type: cell-based; conditions: a549, 2.167 h, dose 1-10 µM, time 130 min
[20] = tested on: Epidermal growth factor receptor (Homo sapiens), P00533 [L858R,T790M]; assay: Inhibition of EGF-induced phosphorylation of EGFR L858R/T790M double mutant in human H1975 cells incubated for 2 hrs followed by EGF stimulation for 10 mins by western blot analysis; type: cell-based; conditions: NCI-H1975, dose 1-10 µM, time 130.0 min
[21] = tested on: Epidermal growth factor receptor (Homo sapiens), P00533 [L858R,T790M]; assay: Inhibition of EGF-induced phosphorylation of EGFR L858R/T790M double mutant in human H1975 cells at 1 uM incubated for 2 hrs followed by EGF stimulation for 10 mins by western blot analysis; type: cell-based; conditions: NCI-H1975, time 130.0 min

Structure (SMILES) | pIC50 [1] | pIC50 (NCI-H1975 [2]) | pIC50 [3] | inhibition [4] | Ratio IC50 (Homo sapiens) | pIC50 (L02) | pIC50 (A549 [5]) | pIC50 (PC-9) | other results
COc1cc(N2CCN(C)CC2)ccc1Nc1nc(Oc2ccc3ccc(=O)[nH]c3c2)c2sccc2n1 | 6.48 | 5.16 | < 5.00 | 74% | > 30 | 5.17 | < 4.70 | 4.66 | –
CN1CCN(Cc2ccc(Nc3nc(Oc4ccc5ccc(=O)[nH]c5c4)c4sccc4n3)cc2)CC1 | 6.70 | 4.97 | < 5.00 | 83% | > 50 | 5.10 | 5.09 | 4.71 | –
O=c1ccc2ccc(Oc3nc(Nc4ccc(N5CCS(=O)(=O)CC5)cc4)nc4ccsc34)cc2[nH]1 | – | – | < 5.00 | 64% | – | – | – | – | –
CN1CCN(c2ccc(Nc3nc(Oc4ccc5ccc(=O)[nH]c5c4)c4sccc4n3)cc2F)CC1 | – | 4.84 | < 5.00 | 82% | – | 5.08 | < 4.70 | < 4.30 | –
O=c1ccc2ccc(Oc3nc(Nc4ccc(N5CCOCC5)c(F)c4)nc4ccsc34)cc2[nH]1 | < 6.00 | – | < 5.00 | 39% | – | – | – | – | –
CCN1CCN(c2ccc(Nc3nc(Oc4ccc5ccc(=O)[nH]c5c4)c4sccc4n3)c(OC)c2)CC1 | 6.48 | 5.00 | < 5.00 | 75% | > 30 | 5.36 | < 4.70 | 4.61 | –
CN1CCN(c2nc(Oc3ccc4ccc(=O)[nH]c4c3)c3sccc3n2)CC1 | < 6.00 | – | – | inactive | – | – | – | – | –
COc1cccc(Nc2nc(Oc3ccc4ccc(=O)[nH]c4c3)c3sccc3n2)c1 | < 6.00 | – | < 5.00 | 22% | – | – | – | – | –
CN1CCN(c2ccc(Nc3nc(Oc4ccc5ccc(=O)[nH]c5c4)c4sccc4n3)nc2)CC1 | < 6.00 | – | < 5.00 | 32% | – | < 4.70 | < 4.70 | – | –
CN(C)CCNc1ccc(Nc2nc(Oc3ccc4ccc(=O)[nH]c4c3)c3sccc3n2)cc1F | 6.64 | 4.97 | 4.85 | 81% | 61 | 5.49 | 5.53 | 4.80 | inhibition [6]: 5%; Activity [7]: Active; Activity [8]: Not Active; inhibition (INH) [9]: Not Active; inhibition (NCI-H1975 [10]): Active; inhibition (NCI-H1975 [11]): Dose-dependent effect; Activity (A549 [12]): Toxic; Activity (A549 [13]): Non-Toxic; inhibition [14]: 89%; inhibition [15]: Dose-dependent effect; inhibition [16]: 53%; inhibition [17]: 66%; inhibition [18]: 43%; inhibition (INH) [19]: Not Active; inhibition [20]: Dose-dependent effect; inhibition [21]: 34%
CCN1CCN(c2nc(Oc3ccc4ccc(=O)[nH]c4c3)c3sccc3n2)CC1 | < 6.00 | – | < 5.00 | inactive | – | < 4.70 | – | – | –
O=c1ccc2ccc(Oc3nc(Nc4ccc(F)cc4)nc4ccsc34)cc2[nH]1 | < 6.00 | – | < 5.00 | 8% | – | – | – | – | –
CN1CCN(c2ccc(Nc3nc(Oc4ccc5ccc(=O)[nH]c5c4)c4sccc4n3)cc2)CC1 | 6.60 | 5.38 | < 5.00 | 82% | > 40 | < 4.30 | 5.46 | 5.24 | –
O=c1ccc2ccc(Oc3nc(Nc4ccc(CN5CCOCC5)cc4)nc4ccsc34)cc2[nH]1 | – | – | < 5.00 | 60% | – | – | – | – | –
C#Cc1cccc(Nc2ncnc3cc(OCCOC)c(OCCOC)cc23)c1 [ERLOTINIB] | – | < 4.70 | – | – | – | 5.14 | – | < 4.30 | –
CCN1CCN(Cc2ccc(Nc3nc(Oc4ccc5ccc(=O)[nH]c5c4)c4sccc4n3)cc2)CC1 | 6.62 | 5.00 | < 5.00 | 81% | > 42 | 5.28 | 5.27 | 4.76 | –
O=c1ccc2ccc(Oc3nc(Nc4ccc(N5CCC(N6CCCCC6)CC5)c(F)c4)nc4ccsc34)cc2[nH]1 | 6.96 | 4.96 | 4.91 | 87% | 113 | 5.25 | 4.98 | 4.78 | Activity [7]: Active; Activity [8]: Not Active
O=c1ccc2ccc(Oc3nc(Nc4ccc(N5CCC(N6CCCCC6)CC5)cc4)nc4ccsc34)cc2[nH]1 | – | – | < 5.00 | 83% | – | – | – | – | –
C=CC(=O)Nc1cccc(Oc2nc(Nc3ccc(N4CCN(C)CC4)cc3)nc3ccsc23)c1 [OLMUTINIB] | – | 5.02 | – | – | – | 7.59 | – | 4.78 | –
O=c1ccc2ccc(Oc3nc(Nc4ccc(N5CCOCC5)cc4)nc4ccsc34)cc2[nH]1 | – | – | < 5.00 | 56% | – | 4.90 | – | – | –
